Where two headings read alike, the source gives them in different places. Values belong to the molecule of their own block, whether it stands above or below them.
Experiments:
[1] = Pharmacokinetics in mice, compound concentration by LC-MS/MS; type: in vivo, CD-1 male mice; conditions: for AUC(0-t): read-out: AUC0-24 h; for Vd: read-out: VSS
hENPP1 enzyme = hENPP1 enzyme (Homo sapiens (Human), UniProt P22413); test: ENPP1 enzymatic inhibition in biochemical assay (TMP-pNP hydrolysis, OD405); conditions: ENPP1 enzymatic inhibition activity, TMP-pNP substrate, pH 9.5
hENPP1 enzyme, sequence (P22413 whole entry): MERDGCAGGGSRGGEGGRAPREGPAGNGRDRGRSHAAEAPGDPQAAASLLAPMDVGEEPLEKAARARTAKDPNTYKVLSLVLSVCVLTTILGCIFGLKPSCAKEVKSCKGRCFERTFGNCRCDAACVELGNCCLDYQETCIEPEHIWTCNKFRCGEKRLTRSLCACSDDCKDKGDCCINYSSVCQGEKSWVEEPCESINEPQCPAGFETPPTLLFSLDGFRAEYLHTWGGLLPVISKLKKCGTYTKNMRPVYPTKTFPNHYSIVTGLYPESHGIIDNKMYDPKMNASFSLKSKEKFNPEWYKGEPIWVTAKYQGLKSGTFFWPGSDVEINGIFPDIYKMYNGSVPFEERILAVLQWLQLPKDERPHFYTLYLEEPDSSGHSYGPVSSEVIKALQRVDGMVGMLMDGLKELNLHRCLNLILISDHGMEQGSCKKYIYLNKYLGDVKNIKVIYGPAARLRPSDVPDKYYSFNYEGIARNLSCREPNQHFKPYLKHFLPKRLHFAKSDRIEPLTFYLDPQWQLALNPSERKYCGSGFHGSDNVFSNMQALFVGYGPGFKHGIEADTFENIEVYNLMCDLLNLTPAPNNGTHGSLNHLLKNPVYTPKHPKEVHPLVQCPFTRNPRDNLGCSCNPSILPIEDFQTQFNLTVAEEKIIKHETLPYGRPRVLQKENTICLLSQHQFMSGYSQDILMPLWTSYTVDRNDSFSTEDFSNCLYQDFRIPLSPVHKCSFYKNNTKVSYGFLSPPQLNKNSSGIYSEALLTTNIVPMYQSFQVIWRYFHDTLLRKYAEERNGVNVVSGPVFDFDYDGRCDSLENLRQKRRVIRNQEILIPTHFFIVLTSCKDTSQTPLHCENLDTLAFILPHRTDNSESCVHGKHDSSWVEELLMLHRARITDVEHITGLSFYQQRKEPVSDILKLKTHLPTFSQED
Description: ENPP1 was a transmembrane glycoprotein capable of hydrolyzing nucleotides and derivatives with a nucleotide-5′-monophosphate structure. ENPP1 was capable of hydrolyzing artificial thymidine 5′-monophosphate p-nitrophenyl ester (TMP-pNP) into nucleotide 5′-monophosphate and p-nitrophenol which was a chromogenic product. The formation amount of p-nitrophenol product could be directly measured by its absorbance at 405 nm, which was directly proportional to the enzyme activity.
The compound was dissolved in DMSO, with stock concentration of 1 mM, and diluted in a 4-fold serial gradient to make 10 concentration points. Echo was used to transfer 300 nL of gradient concentrations of compound to a 384-well assay plate (final concentration: starting at 10 μM, 4-fold serial gradient dilution, 10 concentration points). First, 15 μL of 0.2 ng/uL hENPP1 enzyme (2× final concentration) prepared in assay buffer (250 mM NaCl, 50 mM Tris, pH=9.5) was added to each well. Then, 15 μL of 400 μM TMP-pNP (2× final concentration) diluted in assay buffer was added. After incubating at 37° C. for 0.5 hrs, the OD405 nm value was read by the microplate reader. The percentage inhibition was calculated using the formula: % Inhibition Rate=(ODhigh signal control−ODsample well)/(ODhigh signal control−ODlow signal control)*100. The IC50 value was calculated using four-parameter fit. The high signal control was the DMSO group without inhibitors, and the low signal control was the blank control group.

[2] = target: ENPP1 in cultured MDA-MB-231 cells (Homo sapiens (Human), UniProt P22413); test: ENPP1 enzymatic inhibition in cellular assay (MDA-MB-231 cells, TMP-pNP); type: cell-based; conditions: ENPP1 enzymatic inhibition activity at the cellular level
ENPP1 in cultured MDA-MB-231 cells, sequence (P22413 whole entry): as above
Protocol: ENPP1 was mainly expressed on the surface of cell membranes and could hydrolyze 2′3′-cGAMP into 5′-GMP and 5′-AMP. Similarly, ENPP1 could also hydrolyze the synthetic phosphate TMP-pNP, generating nucleotide-5′-monophosphate and the chromogenic product p-nitrophenol. Therefore, TMP-pNP was used as a substrate to reflect the enzyme activity of ENPP1 in cultured MDA-MB-231 cells. The amount of p-nitrophenol formed in the culture medium was determined by absorbance at 405 nim, which was directly proportional to the activity of ENPP1.
MDA-MB-231 cells was seeded with a density of 6000 per well in 384-well plate and cultured overnight (about 18 hrs) at 37° C. The compound was diluted into a 50× serial gradient dilution using an assay buffer (250 mM NaCl, 50 mM Tris, pH=9.5), starting at 500 μM, and diluted in a 4-fold serial gradient to make 10 concentration points. The cell culture medium was removed, and 10 μL of gradient concentrations of compounds were added to each well of the 384-well assay plate (final concentration: starting at 10 μM, 4-fold serial gradient dilution, with 10 concentration points). Then, 10 μL of 1 mM TMP-pNP (2× final concentration) dissolved in the assay buffer was added to the well. After incubating at 37° C. for 3 hrs, the OD405 nm value was read by the microplate reader. The percentage inhibition was calculated using the formula: % Inhibition Rate=(ODhigh signal control−ODsample well)/(ODhigh signal control−ODlow signal control)*100. The IC50 value was calculated using four-parameter fit. The high signal control was the DMSO group without inhibitors, and the low signal control was the blank control group.

[3] = male, CD-1, mouse, plasma, 2 mg/kg, IV, 2 mpk
[4] = male, CD-1, mouse, plasma, 10 mg/kg, PO, 10 mpk
[5] = male, CD-1, mouse, plasma, 10 mg/kg, PO, 10 mpk vs IV, 2 mpk
[6] = male, CD-1, mouse, plasma, 10 mg/kg, PO, 10 mpk, read-out: Cmax
[7] = male, CD-1, mouse, plasma, 10 mg/kg, PO, 10 mpk, read-out: Tmax

Structure (SMILES): COc1cc2ncc3c(c2cc1F)N(Cc1c(F)cc(S(N)(=O)=O)cc1F)C(=O)OC3 [Compound 048, 3,5-difluoro-4-((9-fluoro-8-methoxy-2-oxo-2H-[1,3]oxazino[5,4-c]quinolin-1(4H)-yl)methyl)benzenesulfonamide]
clearance [1, 3]: 1.92 mL/min/kg | half-life [1, 3]: 3.07 h | AUC(0-t) [1, 3]: 18300 ng·h/mL | Vd [1, 3]: 0.46 L/kg | half-life [1, 4]: 2.79 h | bioavailability [1, 5]: 38.1% | AUC(0-t) [1, 4]: 34800 ng·h/mL | Cmax [1, 6]: 4870 ng/mL | Tmax [1, 7]: 0.583 h | IC50 (hENPP1 enzyme): < 0.1 nM | EC50 [2]: < 0.5 nM

Structure (SMILES): COc1ccc2c3c(cnc2n1)N(C(=O)OC(C)(C)C)CCN3Cc1c(F)cc(S(N)(=O)=O)cc1F [Compound 050, tert-butyl 1-(2,6-difluoro-4-sulfamoylbenzyl)-8-methoxy-2,3-dihydropyrazino[2,3-c][1,8]naphthyridine-4(1H)-carboxylate]
IC50 (hENPP1 enzyme): 0.2 to 2 nM

Structure (SMILES): COc1cc2ncc3c(c2cc1OC)N(Cc1c(F)cc(S(N)(=O)=O)cc1F)C(=O)OC3 [Compound 031, 4-((8,9-dimethoxy-2-oxo-2H-[1,3]oxazino[5,4-c]quinolin-1(4H)-yl)methyl)-3,5-difluorobenzenesulfonamide]
IC50 (hENPP1 enzyme): 0.2 to 2 nM

Structure (SMILES): COc1ccc2c(ncc3c(=O)[nH]c(=O)n(Cc4c(F)cc(S(N)(=O)=O)cc4F)c32)n1 [Compound 017]
IC50 (hENPP1 enzyme): 0.2 to 2 nM

Structure (SMILES): COc1ccc2c3c(cnc2n1)NCC(=O)N3Cc1c(F)cc(S(N)(=O)=O)cc1F [Compound 049, 3,5-difluoro-4-((8-methoxy-2-oxo-3,4-dihydropyrazino[2,3-c][1,8]naphthyridine-1(2H)-yl)methyl)benzenesulfonamide]
IC50 (hENPP1 enzyme): 0.2 to 2 nM

Structure (SMILES): COc1ccc2c3c(cnc2c1)COC(=O)N3Cc1c(F)cc(S(N)(=O)=O)cc1F [Compound 030, 3,5-difluoro-4-((8-methoxy-2-oxo-2H-[1,3]oxazino[5,4-c]quinolin-1(4H)-yl)methyl)benzenesulfonamide]
IC50 (hENPP1 enzyme): 0.1 to 0.2 nM

Structure (SMILES): COc1ccc2c3c(cnc2n1)COC(=O)N3Cc1c(F)cc(S(N)(=O)=O)cc1F [Compound 006, 3,5-difluoro-4-((8-methoxy-2-oxo-2H-[1,3]oxazino[5,4-c][1,8]naphthyridin-1(4H)-yl)methyl)benzenesulfonamide]
bioavailability [1, 5]: 92.6% | IC50 (hENPP1 enzyme): 0.1 to 0.2 nM | EC50 [2]: < 0.5 nM

Structure (SMILES): COc1ccc2c(ncc3ncc(=O)n(Cc4c(F)cc(S(N)(=O)=O)cc4F)c32)n1 [Compound 002, 3,5-difluoro-4-((8-methoxy-2-oxopyrazino[2,3-c][1,8]naphthyridin-1(2H)-yl)methyl)benzenesulfonamide]
IC50 (hENPP1 enzyme): 0.2 to 2 nM

Structure (SMILES): COc1ccc2c(ncc3ccc(=O)n(Cc4c(F)cc(S(N)(=O)=O)cc4F)c32)n1 [Compound 008, 3,5-difluoro-4-((8-methoxy-2-oxopyrido[2,3-h][1,6]naphthyridine-1(2H)-yl)methyl)benzenesulfonamide]
clearance [1, 3]: 4.78 mL/min/kg | half-life [1, 3]: 4.56 h | AUC(0-t) [1, 3]: 7450 ng·h/mL | Vd [1, 3]: 1.52 L/kg | half-life [1, 4]: 3.87 h | bioavailability [1, 5]: 20% | AUC(0-t) [1, 4]: 7340 ng·h/mL | Cmax [1, 6]: 798 ng/mL | Tmax [1, 7]: 3.17 h | IC50 (hENPP1 enzyme): 0.1 to 0.2 nM | EC50 [2]: < 0.5 nM

Structure (SMILES): COc1cc2ncc3c(c2cc1F)N(Cc1c(F)cc(S(N)(=O)=O)cc1F)C(=O)NC3 [Compound 007, 3,5-difluoro-4-((9-fluoro-8-methoxy-2-oxo-3,4-dihydropyrimido[5,4-c]quinolin-1(2H)-yl)methyl)benzenesulfonamide]
IC50 (hENPP1 enzyme): 0.1 to 0.2 nM | EC50 [2]: < 0.5 nM

Structure (SMILES): COc1ccc2c3c(cnc2n1)NCC(=O)N3Cc1c(F)cc(S(N)(=O)=O)cc1F [Compound 051]
IC50 (hENPP1 enzyme): 0.2 to 2 nM

Other lines, results leading:

IC50 (hENPP1 enzyme): 0.2 to 2 nM
Structure (SMILES): COc1ccc2c3c(cnc2n1)NCCN3Cc1c(F)cc(S(N)(=O)=O)cc1F [Compound 066, 3,5-difluoro-4-((8-methoxy-3,4-dihydropyrazino[2,3-c][1,8]naphthyridine-1(2H)-yl)methyl)benzenesulfonamide]

IC50 (hENPP1 enzyme): 0.2 to 2 nM
Structure (SMILES): COc1ccc2c3c(cnc2c1)N(C(=O)CO)CC(=O)N3Cc1c(F)cc(S(N)(=O)=O)cc1F [Compound 072]

clearance [1, 3]: 4.1 mL/min/kg | half-life [1, 3]: 3.51 h | AUC(0-t) [1, 3]: 8090 ng·h/mL | Vd [1, 3]: 0.826 L/kg | half-life [1, 4]: 3.39 h | bioavailability [1, 5]: 49.7% | AUC(0-t) [1, 4]: 20100 ng·h/mL | Cmax [1, 6]: 7900 ng/mL | Tmax [1, 7]: 0.5 h | IC50 (hENPP1 enzyme): < 0.1 nM
Structure (SMILES): COc1ccc2c3c(cnc2n1)CCC(=O)N3Cc1c(F)cc(S(N)(=O)=O)cc1F [Compound 054, 3,5-difluoro-4-((8-methoxy-2-oxo-3,4-dihydropyrido[2,3-h][1,6]naphthyridine-1(2H)-yl)methyl)benzenesulfonamide]

IC50 (hENPP1 enzyme): 0.1 to 0.2 nM
Structure (SMILES): COc1cnc2c(c1)ncc1[nH]c(=O)c(=O)n(Cc3c(F)cc(S(N)(=O)=O)cc3F)c12 [Compound 076]

IC50 (hENPP1 enzyme): 0.1 to 0.2 nM
Structure (SMILES): COc1ccc2c3c(cnc2n1)CN(C1CC1)C(=O)N3Cc1c(F)cc(S(N)(=O)=O)cc1F [Compound 074]

IC50 (hENPP1 enzyme): 0.1 to 0.2 nM
Structure (SMILES): COc1ccc2c3c(cnc2n1)COC(=O)N3Cc1ccc(S(N)(=O)=O)cn1 [Compound 070, 6-((8-methoxy-2-oxo-2H-[1,3]oxazino[5,4-c][1,8]naphthyridin-1(4H)-yl)methyl)pyridine-3-sulfonamide]

IC50 (hENPP1 enzyme): 0.2 to 2 nM
Structure (SMILES): CCOc1ccc2c(ncc3ncc(=O)n(Cc4c(F)cc(S(N)(=O)=O)cc4F)c32)n1 [Compound 063]

IC50 (hENPP1 enzyme): 0.2 to 2 nM
Structure (SMILES): COc1ccc2c3c(cnc2n1)COC(=O)N3Cc1ccc(S(N)(=O)=O)cc1 [Compound 067, 4-((8-methoxy-2-oxo-2H-[1,3]oxazino[5,4-c][1,8]naphthyridin-1(4H)-yl)methyl)benzenesulfonamide]

IC50 (hENPP1 enzyme): 0.1 to 0.2 nM
Structure (SMILES): COc1nc2ncc3c(c2cc1F)N(Cc1c(F)cc(S(N)(=O)=O)cc1F)C(=O)CN3 [Compound 055]

IC50 (hENPP1 enzyme): 0.1 to 0.2 nM
Structure (SMILES): COc1ccc2c3c(cnc2n1)COC(=O)N3Cc1ccc(S(N)(=O)=O)cc1F [Compound 071, 3-fluoro-4-((8-methoxy-2-oxo-2H-[1,3]oxazino[5,4-c][1,8]naphthyridin-1(4H)-yl)methyl)benzenesulfonamide]

IC50 (hENPP1 enzyme): < 0.1 nM | EC50 [2]: < 0.5 nM
Structure (SMILES): COc1ccc2c(ncc3[nH]c(=O)c(=O)n(Cc4c(F)cc(S(N)(=O)=O)cc4F)c32)n1 [Compound 062, 3,5-difluoro-4-((8-methoxy-2,3-dioxo-3,4-dihydropyrazino[2,3-c][1,8]naphthyridine-1(2H)-yl)methyl)benzenesulfonamide]

IC50 (hENPP1 enzyme): 0.1 to 0.2 nM
Structure (SMILES): COc1ccc2c3c(cnc2n1)CN(CC(F)(F)F)C(=O)N3Cc1c(F)cc(S(N)(=O)=O)cc1F [Compound 056]

AUC0-24 h ([1]; IV, 2 mpk): 4419 ng·h/mL | CL ([1]; IV, 2 mpk): 7.2 mL/min/kg | T1/2 ([1]; IV, 2 mpk): 6.01 h | VSS ([1]; IV, 2 mpk): 3.212 L/kg | AUC0-24 h ([1]; PO, 10 mpk): 3274 ng·h/mL | Cmax ([1]; PO, 10 mpk): 247 ng/mL | T1/2 ([1]; PO, 10 mpk): 7.78 h | Tmax ([1]; PO, 10 mpk): 6 h | F % ([1]; PO, 10 mpk vs IV, 2 mpk): 15% | IC50 (hENPP1 enzyme): 0.1 to 0.2 nM | EC50 [2]: 0.5 to 2 nM
Structure (SMILES): COc1ccc2c(ncc3c2n(Cc2c(F)cc(S(N)(=O)=O)cc2F)c(=O)n3CC(F)(F)F)n1 [ZX-131, reference compound]

From patent publication US20250115609A1, “AROMATIC HETEROCYCLIC COMPOUNDS, PREPARATION METHOD THEREFOR AND USES THEREOF” (Innovstone Therapeutics Limited, priority 2021, published 2025)
